Measurements published in paper PMC7849180 (Frontiers in Pharmacology, 2020).

How the values were obtained:
[1] = Metabolic stability in liver microsomes; format: in vitro ADME, rat
Method: The metabolic stability of ZG0128 (the dihydrochloride monohydrate of ZG0163) was evaluated using human, monkey, dog, rat, and mouse liver microsomes as the in vitro models. The percentages of residues for ZG0128 after incubating in human, monkey, dog, rat, and mouse liver microsomes for 60 minutes was 55.5%, 63.1%, 67.1%, 80.3%, and 79.0%, respectively. The CLint values of in vivo clearance were calculated to be 24.1, 21.6, 33.4, 10.7, 26.0 mL/min/kg, respectively. Thus its was speculated that ZG0128 was a medium clearance drug in humans, monkeys, and mice, a high clearance drug in dogs, and a low clearance drug in rats.
Using UPLC-UV/Q-TOF MS, the potential metabolites of ZG0128 in various liver microsomes (human, monkey, dog, rat and mouse liver microsomes) incubation systems were identified and the metabolic pathways of ZG0128 were speculated. The main metabolite of ZG0128 in above five types of liver microsomes were primary alcohol metabolite formed by morpholine ring-opening (M3). […]

[2] = PK, single intragastric dose; format: in vivo, beagles
Method: Overall 2.0 (1.0-2.0) 0.593 ± 0.194 2.96 ± 1.07 3.03 ± 1.09 3.99 ± 0.40 2.24 ± 0.88 30.5 Male 2.0 (2.0-8.0) 0.765 ± 0.105 5.76 ± 3.51 5.82 ± 3.48 5.28 ± 2.11 2.31 ± 0.89 […] 61 Male 8.0 (4.0-12.0) 1.49 ± 0.33 16.6 ± 8.2 16.7 ± 8.2 7.73 ± 2.48 3.72 ± 0.79 Female 2.0 (2.0-6.0) 1.73 ± 0.75 17.4 ± 8.9 17.4 ± 8.9 6.33 ± 1.62 2.54 ± 1.06 […] (multiple […] Pharmacokinetics of single dose intravenous administration in beagles. After intravenous administration of 12.2 mg ZG0128 (the average weight of the beagles was about 10 kg, so the dose given equals to 1.22 mg/kg ZG0128), ZG0163 […] 3.49 L/kg. […] Pharmacokinetics of single-dose intragastric administration. […] mg/ZG0128). […] The plasma […] There were large individual differences in plasma exposure AUC0-t in dogs. The pharmacokinetic differences between genders could not be determined. […] increased proportionally with the increasing dosage. The average Tmax of metabolite ZG0245 was 2.0 h.

[3] = Plasma pharmacokinetics, multiple ascending dose (MAD), 10 days; format: in vivo, human
Method: MAD study was conducted after evaluating the tolerance of the single dose 100 mg cohort. In MAD part, volunteers were designed into five cohorts (100 mg q24h, 150 mg q24h, 100 mg q12h, 200 mg q24h, 150 mg q12h). […] The MAD part was initiated after the safety and tolerance evaluation from SAD 100 mg cohorts. Progression to higher MAD doses was allowed after review the safety data of the prior MAD cohorts.
For MAD cohorts, blood samples were collected at 0, 0.25, 0.5, 1, 1.5, 2, 3, 4, 5, 6, 8 and 12 h on day 1; 0 h on day 2, 3, 4, 6 and 7; 0, 0.25, 0.5, 1, 1.5, 2, 3, 4, 5, 6, 8, 12, 24, 36 and 48 h on day 10. In food effect cohort, blood samples were collected at 0, 0.25, 0.5, 1, 1.5, 2, 3, 4, 5, 6, 8, 12, 24, 36, 48, 72, 96 and 120 h in period one of group A; 0, 0.25, 0.5, 1, 1.5, 2, 3, 4, 5, 6, 8, 12, 24, 36 and 48 h in period two of group A and the two periods of group B. Blood samples were centrifuged at 3,000 rpm for 10 min at 2–8 °C and stored at -80 °C until liquid chromatography-mass spectrophotometry (LC-MS/MS) analysis. Urine and feces samples were collected in period one of group A of food effect cohort with the intervals 0, 0–6, 6–12, 12–24, 24–48, 48–72, 72–96, 96–120 and 0–120 h, respectively. […]

Cl.Cl.O.[2H]C1([2H])COCC([2H])([2H])N1c1ccc(Nc2nccc(-c3ccc(C(=O)NCC#N)cc3)n2)cc1 [ZG0128, Jaktinib Dihydrochloride Monohydrate]
CLint of in vivo clearance [1]: 10.7 mL/min/kg | percentage of residue after 60 minutes [1]: 80.3%

Jaktinib
AUC0-t (mean) ([2]; 61 mg ZG0128): 459 ng·h/mL | Cmax ([2]; 61 mg ZG0128): 156 ng/mL | absolute bioavailability ([2]; 61 mg, by AUC0-t): 27.2% | AUC0-t (mean) ([2]; 122 mg ZG0128): 948 ng·h/mL | Cmax ([2]; 122 mg ZG0128): 266 ng/mL | AUC0-t (mean) ([2]; 244 mg ZG0128): 1728 ng·h/mL | Cmax ([2]; 244 mg ZG0128): 444 ng/mL | average Tmax ([2]; 1, 2 and 4 tablets (61, 122, 244 mg ZG0128)): 2.0 h | average t1/2, range over doses ([2]; 61–244 mg): 1.31 to 2.49 h | exposure as % of the medium dosage group (122 mg/animal) ([2]; intragastric 122 mg ZG0128): 93.0% | Tmax ([2]; intragastric 122 mg ZG0128 (compared with medium dosage tablet group)): 1.50 h | accumulation factor Rac (90% CI) ([3]; 100 mg q12h): 1.24 | Cmax, geometric mean (CV%) ([3]; 100 mg q12h, Day 1): 204.68 (36.2) ng/ml | Tmax, median (min–max) ([3]; 100 mg q12h, Day 1): 1.50 (0.50–4.00) h | Cmax, geometric mean (CV%) ([3]; 100 mg q12h, Day 10): 226.87 (33.2) ng/ml | Cmin,ss, geometric mean (CV%) ([3]; 100 mg q12h, Day 10): 27.565 (96.3) ng/ml | Fluctuation, geometric mean (CV%) ([3]; 100 mg q12h, Day 10): 204.463 (31.3) % | Tmax, median (min–max) ([3]; 100 mg q12h, Day 10): 3.00 (0.50–4.00) h | accumulation factor Rac (90% CI) ([3]; 100 mg q24h): 0.98 | Cmax, geometric mean (CV%) ([3]; 100 mg q24h, Day 1): 182.68 (73.4) ng/ml | Tmax, median (min–max) ([3]; 100 mg q24h, Day 1): 2.00 (1.00–4.00) h | Cmax, geometric mean (CV%) ([3]; 100 mg q24h, Day 10): 150.84 (76.7) ng/ml | Cmin,ss, geometric mean (CV%) ([3]; 100 mg q24h, Day 10): 8.217 (169.4) ng/ml | Fluctuation, geometric mean (CV%) ([3]; 100 mg q24h, Day 10): 290.146 (45.7) % | Tmax, median (min–max) ([3]; 100 mg q24h, Day 10): 1.50 (1.00–4.00) h | accumulation factor Rac (90% CI) ([3]; 150 mg q12h): 1.38 | Cmax, geometric mean (CV%) ([3]; 150 mg q12h, Day 1): 295.08 (52.6) ng/ml | Tmax, median (min–max) ([3]; 150 mg q12h, Day 1): 2.00 (1.00–4.00) h | Cmax, geometric mean (CV%) ([3]; 150 mg q12h, Day 10): 470.78 (38.2) ng/ml | Cmin,ss, geometric mean (CV%) ([3]; 150 mg q12h, Day 10): 26.868 (39.2) ng/ml | Fluctuation, geometric mean (CV%) ([3]; 150 mg q12h, Day 10): 274.265 (17.3) % | Tmax, median (min–max) ([3]; 150 mg q12h, Day 10): 1.25 (0.50–2.00) h | accumulation factor Rac (90% CI) ([3]; 150 mg q24h): 1.16 | Cmax, geometric mean (CV%) ([3]; 150 mg q24h, Day 1): 236.94 (88.6) ng/ml | Tmax, median (min–max) ([3]; 150 mg q24h, Day 1): 3.00 (1.00–6.00) h | Cmax, geometric mean (CV%) ([3]; 150 mg q24h, Day 10): 250.23 (70.3) ng/ml | Cmin,ss, geometric mean (CV%) ([3]; 150 mg q24h, Day 10): 14.342 (71.1) ng/ml | Fluctuation, geometric mean (CV%) ([3]; 150 mg q24h, Day 10): 281.461 (29.1) % | Tmax, median (min–max) ([3]; 150 mg q24h, Day 10): 2.50 (1.00–5.00) h | accumulation factor Rac (90% CI) ([3]; 200 mg q24h): 0.94 | Cmax, geometric mean (CV%) ([3]; 200 mg q24h, Day 1): 327.37 (36.6) ng/ml | Tmax, median (min–max) ([3]; 200 mg q24h, Day 1): 2.50 (1.50–4.00) h | Cmax, geometric mean (CV%) ([3]; 200 mg q24h, Day 10): 296.88 (58.3) ng/ml | Cmin,ss, geometric mean (CV%) ([3]; 200 mg q24h, Day 10): 10.798 (125.4) ng/ml | Fluctuation, geometric mean (CV%) ([3]; 200 mg q24h, Day 10): 390.098 (38.5) % | Tmax, median (min–max) ([3]; 200 mg q24h, Day 10): 3.00 (1.50–4.00) h | time to steady state ([3]; continuous administration, trough concentrations): approximately 4 days
